Test results as given in patent US20260240869A1, “ANTIPSEUDOMONAL FUSIDIC ACID COMPOUNDS” (priority 2022, published 2026).
Converted amounts (≈) assume the structure as drawn. Read-outs that look alike come from different tables or passages of the source.

Tests used:
P. aeruginosa PAO1 [1] = assay: LC-MS/MS whole-cell accumulation assay, P. aeruginosa PAO1; type: cell-based, Pseudomonas aeruginosa
Description: (§1) Accumulation Assay. The accumulation assay was performed in triplicate in batches of ten samples, with each batch containing tetracycline or ciprofloxacin as a positive control. P. aeruginosa PAO1, PAO1 A6, PA14, PA14 A40, and PA1280, and E. coli MG1655 were used in these experiments. For each replicate, 2.5 mL (E. coli) or 5 mL (P. aeruginosa) of an overnight culture was diluted into 250 mL of fresh Luria-Bertani broth (Lennox) or Tryptic Soy Broth (TSB) and grown at 37° C. with shaking to an optical density (OD600) of 0.55-0.60. The bacteria were pelleted at 3220 r.c.f. for 10 min at 4° C., and the supernatant was discarded. The pellets were resuspended in 40 mL of phosphate buffered saline (PBS) and pelleted as before, and the supernatant was discarded. The pellets were resuspended in 8.8 mL of fresh PBS and aliquoted into ten, 1.5 mL Eppendorf tubes (875 μL each). The number of colony-forming units (CFUs) was determined by a calibration curve. The samples were equilibrated at 37° C. with shaking for 5 min; compound was added (final concentration=50 μM), and then the samples were incubated at 37° C. with shaking for either 10 min. These time points were short enough to minimize metabolic and growth changes (no changes in OD600 or CFU count observed). After incubation, 800 μL of the cultures was carefully layered on 700 μL of silicone oil (9:1 AR20/Sigma High Temperature, cooled to −78° C.). Bacteria were pelleted through the oil by centrifuging at 13 000 r.c.f. for 2 min at room temperature (with the supernatant remaining above the oil); the supernatant and oil were then removed by pipetting. To lyse the samples, each pellet was dissolved in […] of water, and then, they were subjected to three (E. coli) or four (P. aeruginosa) freeze-thaw cycles of 3 min in liquid nitrogen followed by 3 min in a water bath at 65° C. P. aeruginosa samples were then treated with 50 µM DNase and RNase and incubated at 37° C. for 15 minutes. The lysates were pelleted at 13 000 r.c.f. for 2 min at room temperature, and the supernatant was collected ([…]). The debris was resuspended in 100 μL of methanol and pelleted as before. The supernatants were removed and combined with the previous supernatants collected. Finally, the remaining debris was removed by centrifuging at 20 000 r.c.f. for 10 min at room temperature. Supernatants were analyzed by LC-MS/MS.
(§2) Samples were analyzed with the 5500 QTRAP LC/MS/MS system (AB Sciex) with a 1200 series HPLC system (Agilent Technologies) including a degasser, an autosampler, and a binary pump. Liquid chromatography separation was performed on an Agilent SB-Aq column (4.6×50 mm, 5 μm) (Agilent Technologies) with mobile phase A (0.1% formic acid in water) and mobile phase B (0.1% formic acid in acetonitrile). The flow rate was 0.3 mL/min. The linear gradient was as follows: 0-3 min, 100% mobile phase A; 10-15 min, 2% mobile phase A; 15.5-21 min, 100% mobile phase A. The autosampler was set at 5° C. The injection volume was 15 μL. Mass spectra were acquired with both positive electrospray ionization at the ion spray voltage of 5500 V and negative electrospray ionization at the ion spray voltage of −4500 V. The source temperature was 450° C. The curtain gas, ion source gas 1, and ion source gas 2 were 33, 50, and 65, respectively. Multiple reaction monitoring was used to quantify the metabolites. Power analysis was not used to determine the number of replicates. Error bars represent the standard error of the mean of three biological replicates. The statistical significance of the accumulation was determined using a two sample Welch's t test (one-tailed test, assuming unequal variance) relative to the negative controls. All compounds evaluated in the biological assays were >95% pure.
MBN assay. Assays measuring permeabilization by polymyxin B nonapeptide (PMBN) were performed as above, with the addition of 8 μg/mL PMBN immediately before the compound of interest was added.

WT EC = settings: retrospective literature analysis (Table 6); cited from earlier work
tolC EC = settings: retrospective literature analysis (Table 6); cited from earlier work
P. aeruginosa PA1280 = assay: MIC, P. aeruginosa PA1280; type: cell-based, Pseudomonas aeruginosa; settings: for MIC: Pseudomonas aeruginosa
Description: (§3) Antimicrobial Susceptibility Tests. Susceptibility testing was performed in biological triplicate, using the microdilution broth method as outlined by the Clinical and Laboratory Standards Institute. Bacteria were cultured with cation-adjusted Meuller-Hinton broth (Sigma-Aldrich; catalogue number: 90922) or Luria-Bertani (LB) broth (Lennox) in round-bottom 96-well plates (Corning; catalogue number: 3788).

P. aeruginosa PAO1 [2] = assay: MIC, CLSI broth microdilution, P. aeruginosa PAO1; type: cell-based, Pseudomonas aeruginosa; settings: for MIC: Pseudomonas aeruginosa
Description: as §3

P. aeruginosa PA14 = assay: MIC, P. aeruginosa PA14; type: cell-based, Pseudomonas aeruginosa; settings: for MIC: Pseudomonas aeruginosa
Description: as §3

PA efflux KO = settings: retrospective literature analysis (Table 6); cited from earlier work
WT PA = settings: retrospective literature analysis (Table 6); cited from earlier work
P. aeruginosa PAΔ6 [3] = assay: MIC, efflux pump knockout strain PAΔ6; type: cell-based, Pseudomonas aeruginosa
Description: as §3

P. aeruginosa PAΔ6 [4] = assay: LC-MS/MS whole-cell accumulation assay, PAΔ6; type: cell-based, Pseudomonas aeruginosa; settings: FIG. 1c
Description: as §1, §2

P. aeruginosa PAO1 [5] = assay: NPN outer membrane permeability assay; type: cell-based, Pseudomonas aeruginosa; settings: treatment for ten minutes
Description: Further, the fluorescent probe N-phenylnapthylamine (NPN) was used to assess outer membrane permeability changes upon treatment with FA, gentamicin, and FA prodrug. NPN is membrane impermeable and is only weakly fluorescent in aqueous solutions. Upon entry to the cell and interacting with phospholipids, significant fluorescence is observed. […] This residual membrane depolarizing antibacterial activity can be observed in the FA polyamine (FIG. 4a) and the diacylated compound (Table 9).

S. aureus ATCC 29213 = assay: MIC, S. aureus ATCC 29213; type: cell-based; settings: Staphylococcus aureus, ATCC29213; Table 9; read-out: MIC S. aureus ATCC 29213
Description: as §3

E. coli MG1655 = assay: MIC, E. coli MG1655; type: cell-based; settings: Escherichia coli, MG1655; Table 9; read-out: MIC E. coli MG1655
Description: as §3

[6] = PA1280, MH broth (Table 4), read-out: PA1280 MIC
[7] = WT P. aeruginosa PAO1, MH broth (Table 1), read-out: PAO1 MIC
[8] = PA14, MH broth (Table 4), read-out: PA14 MIC

Row | Compound | WT EC MIC (WT EC) [µg/mL] | tolC EC MIC (tolC EC) [µg/mL] | MIC (P. aeruginosa PA1280; [6]) [µg/mL] | PAO1 MIC (P. aeruginosa PAO1 [2]; MH broth (Table 4)) [µg/mL] | MIC (P. aeruginosa PAO1 [2]; [7]) [µg/mL] | MIC (P. aeruginosa PA14; [8]) [µg/mL] | PA efflux KO MIC (PA efflux KO) [µg/mL] | WT PA MIC (WT PA) [µg/mL] | further results
1 | CN(C)c1cc(NC(=O)CNC(C)(C)C)c(O)c2c1C[C@H]1C[C@H]3[C@H](N(C)C)C(O)=C(C(N)=O)C(=O)[C@@]3(O)C(O)=C1C2=O [Tigecycline] | 0.5 | 0.125 | 16 (≈ 27.3 µM) | 1 | 1 (≈ 1.71 µM) | 2 (≈ 3.41 µM) | 0.125 | 1 | accumulation relative to tetracycline (P. aeruginosa PAO1 [1]; FIG. 1a): accumulates to a higher extent than tetracycline
2 | C[C@@H](O)[C@H]1C(=O)N2C(C(=O)O)=C(S[C@@H]3CN[C@H](C(=O)N(C)C)C3)[C@H](C)[C@H]12 [Meropenem] |  |  | 0.5 (≈ 1.3 µM) | 0.25 | 0.25 (≈ 0.652 µM) | 0.5 (≈ 1.3 µM) |  |  | accumulation in PAO1 (in words) (P. aeruginosa PAO1 [1]; FIG. 1a / FIG. 5): minimal accumulation
3 | CN[C@H](CC(C)C)C(=O)N[C@H]1C(=O)N[C@@H](CC(N)=O)C(=O)N[C@H]2C(=O)N[C@H]3C(=O)N[C@H](C(=O)N[C@H](C(=O)O)c4cc(O)cc(O)c4-c4cc3ccc4O)[C@H](O)c3ccc(c(Cl)c3)Oc3cc2cc(c3O[C@@H]2O[C@H](CO)[C@@H](O)[C@H](O)[C@H]2O[C@H]2C[C@](C)(N)[C@H](O)[C@H](C)O2)Oc2ccc(cc2Cl)[C@H]1O [Vancomycin] |  |  |  | >512 |  |  |  |  | MIC (P. aeruginosa PA1280; PA1280, read-out: PA1280 MIC): > 512 µg/mL; MIC (P. aeruginosa PAO1 [2]; PAO1, read-out: PAO1 MIC): > 512 µg/mL; MIC (P. aeruginosa PAO1 [2]; PAO1, read-out: WT MIC): > 512 µg/mL; MIC (P. aeruginosa PA14; PA14, read-out: PA14 MIC): > 512 µg/mL; Fold change (P. aeruginosa PAΔ6 [3]; MIC ratio WT PAO1 / PAΔ6 (Table 2)): 1; PAΔ6 MIC (P. aeruginosa PAΔ6 [3]; efflux pump KO strain, MH or LB broth (Table 2)): >512 µg/mL; change of accumulation in efflux pump knockout PAΔ6 versus WT PAO1 (P. aeruginosa PAΔ6 [4]): no change in accumulation
4 | Gentamicin |  |  |  |  |  |  |  |  | Fold change (MIC) (P. aeruginosa PAO1 [2]; 5 mM MgCl2/CAMH versus CAMH (Table 10)): 32X; MIC P. aeruginosa PAO1, CAMH (P. aeruginosa PAO1 [2]; CAMH (Table 10)): 0.25 µg/mL; shift in MIC on co-treatment with 5 mM MgCl2 (P. aeruginosa PAO1 [2]; P. aeruginosa PAO1): 32 -fold; MIC P. aeruginosa PAO1, 5 mM MgCl2/CAMH (P. aeruginosa PAO1 [2]; co-treatment 5 mM MgCl2 in CAMH (Table 10)): 8; NPN fluorescence (outer membrane permeability) (P. aeruginosa PAO1 [5]): dose-dependent increase
5 | CO[C@@H]1[C@@H](OC(N)=O)[C@@H](O)[C@H](Oc2ccc3c(O)c(NC(=O)c4ccc(O)c(CC=C(C)C)c4)c(=O)oc3c2C)OC1(C)C [Novobiocin] |  |  | > 512 | >512 | > 512 | > 512 |  |  | change of accumulation upon membrane permeabilization (P. aeruginosa PAO1 [1]; treatment with PMBN, FIG. 1b): significant increase in accumulation; PAO1 + PMBN MIC (P. aeruginosa PAO1 [2]; co-treatment of 8 μg/mL of PMBN, MH broth): 1 µg/mL
6 | CC(=O)O[C@H]1C[C@@]2(C)[C@@H](C[C@@H](OC(C)=O)[C@H]3[C@@]4(C)CC[C@@H](OC(C)=O)[C@@H](C)[C@@H]4CC[C@@]32C)/C1=C(\CCC=C(C)C)C(=O)O [FA diacetate] |  |  |  |  |  |  |  |  | MIC (S. aureus ATCC 29213): 64 µg/mL; MIC (E. coli MG1655): > 512 µg/mL
7 | Cc1c(N2CC[C@@H]([C@H](C)N)C2)c(F)cc2c(CN)cc(=O)n(C3CC3)c12 [Compound 10] | 1 | 0.06 |  |  |  |  | 0.5 | 2 | 
8 | CN(C)[C@@H]1C(=O)C(C(N)=O)=C(O)[C@@]2(O)C(=O)C3=C(O)c4c(O)cccc4[C@@](C)(O)[C@H]3C[C@@H]12 [Tetracycline] | 1 | 0.25 |  | 16 |  |  | 0.25 | 16 | WT Accum (P. aeruginosa PAO1 [1]; WT PAO1, ± s.e.m. (Table 7)): 452 ± 5 nmol/10^12 CFUs; PA1280 MIC (P. aeruginosa PA1280; MH broth (Table 4)): 32 µg/mL; PAO1 MIC (P. aeruginosa PAO1 [2]; WT P. aeruginosa PAO1, MH broth (Table 1)): 16 µg/mL; WT MIC (P. aeruginosa PAO1 [2]; WT P. aeruginosa PAO1, MH or LB broth (Table 7)): 16 µg/mL; PA14 MIC (P. aeruginosa PA14; MH broth (Table 4)): 8 µg/mL; PAΔ6 MIC (P. aeruginosa PAΔ6 [3]; MH or LB broth (Table 7)): 0.25 µg/mL; Fold change (MIC) (P. aeruginosa PAΔ6 [3]; WT MIC / PAΔ6 MIC (Table 7)): 64
9 | Cc1c(N2CC[C@@H]([C@H](C)N)C2)c(F)cc2c(CO)cc(=O)n(C3CC3)c12 [Compound 11] | 16 | 0.25 |  |  |  |  | 4 | 16 | 
10 | CC(=O)NC[C@H]1CN(c2ccc(N3CCOCC3)c(F)c2)C(=O)O1 [Linezolid] |  |  | > 512 | >512 | > 512 | > 512 |  |  | 
11 | CC(=O)O[C@H]1C[C@@]2(C)[C@@H](C[C@@H](OC(C)=O)[C@H]3[C@@]4(C)CC[C@@H](OC(C)=O)[C@@H](C)[C@@H]4CC[C@@]32C)/C1=C(\CCC=C(C)C)C(=O)O/N=C(\N)CNCCCNCCCNCCCN [FA prodrug-diacetate] |  |  |  |  |  |  |  |  | MIC (S. aureus ATCC 29213): 16 µg/mL (≈ 19 µM); MIC (P. aeruginosa PAO1 [2]; PAO1, Table 9, read-out: MIC P. aeruginosa PAO1): 32 µg/mL (≈ 38 µM); MIC (E. coli MG1655): 16 µg/mL (≈ 19 µM)
